Laboratory results reported in US10233186B2, “Inhibitors of activin receptor-like kinase” (BLUEPRINT MEDICINES CORPORATION, priority 2016, dated 2019).

biological target: T1, human ALK2 R206H (Homo sapiens, UniProt Q04771, R206H); test: Cell-based ALK2-R206H cell activity assay (Smad1-Ser463/Ser465 phosphorylation by AlphaLISA in HEK293-ALK2-R206H cells); settings: read-out: Cell Line (Cell Assay IC50)
T1 construct: expressed in transfected cells; host or cells: HEK293 (ATCC CRL1573), lentivirus transduction, blasticidin selection
T1 sequence (Q04771 21-509 R206H): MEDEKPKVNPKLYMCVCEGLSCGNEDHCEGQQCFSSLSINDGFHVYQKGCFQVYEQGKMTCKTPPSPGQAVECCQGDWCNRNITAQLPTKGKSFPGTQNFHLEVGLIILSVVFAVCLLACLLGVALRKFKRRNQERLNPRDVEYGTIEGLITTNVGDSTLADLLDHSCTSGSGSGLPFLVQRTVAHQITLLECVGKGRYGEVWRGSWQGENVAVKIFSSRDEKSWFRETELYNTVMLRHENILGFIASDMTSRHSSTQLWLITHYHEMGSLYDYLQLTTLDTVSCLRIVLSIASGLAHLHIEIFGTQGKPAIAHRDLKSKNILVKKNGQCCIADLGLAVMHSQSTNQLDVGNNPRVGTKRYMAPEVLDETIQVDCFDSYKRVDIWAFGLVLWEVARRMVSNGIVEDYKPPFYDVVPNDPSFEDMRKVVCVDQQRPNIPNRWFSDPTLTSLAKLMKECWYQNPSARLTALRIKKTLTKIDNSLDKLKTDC
Protocol: A HEK293 (ATCC, Cat^# CRL1573) based stable cell line expressing human ALK2 R206H cDNA (synthesized by GeneScript, Piscataway, N.J.) and a FLAG tag at the C-terminus was generated by lentivirus transduction and subsequent blasticidin (Life Technologies, Cat^#-A1113902) selection at 10 μg/ml for >2 wks. This cell line was named HEK293-ALK2-R206H.
Test compounds were first diluted to 4 mM or 0.4 mM and then serially diluted 3-fold into 10 different concentrations using DMSO. […] Two μl of the diluted compounds were then dispensed into the HEK293-ALK2-R206H cell-containing wells of the microplates in duplicates. In this way, each compound was tested in 10 doses (3-fold serial dilution with the top concentration being 10 μM or 1 μM). Liquid handling was achieved using a Bravo Automated Liquid Handling Platform (Agilent Technologies). DMSO without compound was used as a negative control. The positive control was 1 μM LDN193189, a known bone morphogenetic protein (BMP inhibitor).
The 10-point dose response curve was used to calculate the IC50 values.
(§1) Blank values in the table indicate that the particular compound was not tested in this assay.

| Structure (SMILES) | IC50 |
| --- | --- |
| O=C(C1CC1)N1CCN(c2ccnn3cc(-c4cnn(C5CNC5)c4)cc23)CC1 [Compound 100] | 100 to 500 nM |
| O=C(C1CC1)N1CCN(c2ccnn3cc(-c4ccc(C5CNC5)cc4)cc23)CC1 [Compound 102] | 100 to 500 nM |
| O=C(C1CC1)N1CCN(c2ccnn3cc(-c4cc5c(s4)CNCC5)cc23)CC1 [Compound 107] | < 100 nM |

Further lines, results first:

| IC50 | Structure (SMILES) |
| --- | --- |
| > 500 nM | O=C(C1CC1)N1CCN(c2ccnn3cc(-c4cnn(C5CCCC5)c4)cc23)CC1 [Compound 103] |
| 100 to 500 nM | O=C(C1CC1)N1CCN(c2ccnn3cc(-c4cnn(C5CCNC5)c4)cc23)CC1 (stereo not drawn) [Compound 104] |
| < 100 nM | O=C(C1CC1)N1CCN(c2ccnn3cc(-c4nc5c(s4)CNCC5)cc23)CC1 [Compound 109] |

biological target: T2, ALK2 R206H (GST-tagged mutant ALK2) (Homo sapiens, UniProt Q04771, R206H); test: ALK binding assay (LANTHASCREEN TR-FRET competitive binding, displacement of Kinase Tracer 178); settings: ALK2 R206H, LANTHASCREEN TR-FRET competitive binding; read-out: Binding Assay (IC50)
T2 construct: purchased Carna Bioscience or ThermoFisher 09-148 or PV6232
T2 sequence (Q04771 21-509 R206H): T1 sequence (Q04771 21-509 R206H)
Protocol: Binding assays were conducted using the LANTHASCREEN® technology (ThermoFisher Scientific). LANTHASCREEN® is a competitive binding, displacement assay where the assumed steady state occupancy of the binding site is measured using a time-resolved, fluorescence energy transfer (TR-FRET) readout between a fluorescent tracer and Europium (Eu)-tagged antibody specific for the kinase or expression tag (e.g. GST) of interest. Displacement of the tracer by a compound of the disclosure reduces, and is directly proportional to, the TR-FRET between the tracer and the antibody. Tracer was used at a concentration equal to or near to its Kd for the kinase.
In all cases, the kinase (2-5 nM) was mixed with Eu-tagged antibody (10 nM) mix and tracer (50 nM) were incubated with test compound titrations prepared in 100% DMSO (1% DMSO final) for 30 minutes at room temperature. All reagents and compounds were dissolved in Kinase Buffer A (ThermoFisher) to achieve the final concentration. […] This readout was normalized to 0% and 100% inhibited control wells, plotted against inhibitor concentration, and fitted to a 4-parameter log dose response curve.
as §1

| Structure (SMILES) | IC50 |
| --- | --- |
| O=C(C1CC1)N1CCN(c2ccnn3cc(-c4cnn(C5CNC5)c4)cc23)CC1 [Compound 100] | < 10 nM |
| O=C(C1CC1)N1CCN(c2ccnn3cc(-c4ccc(C5CNC5)cc4)cc23)CC1 [Compound 102] | < 10 nM |
| O=C(C1CC1)N1CCN(c2ccnn3cc(-c4cc5c(s4)CNCC5)cc23)CC1 [Compound 107] | < 10 nM |
| N[C@H]1CCc2cc(-c3cc4c(N5CCN(C(=O)C6CC6)CC5)ccnn4c3)ccc21 [Compound 449] | < 10 nM |
| O=C(C1CC1)N1CCN(c2ccnn3cc(-c4ccc(C5=CCNCC5)cc4)cc23)CC1 [Compound 458] | < 10 nM |
| CC(C)N1C[C@H](c2ccc(-c3cc4c(N5CCN(C(=O)C6CC6)CC5)ccnn4c3)cc2)C[C@H]1C [Compound 506] | 10 to 50 nM |
| CC(C)N1CCN(c2cnc(-c3cc4c(N5CCN(C(=O)C6CC6)CC5)ccnn4c3)nc2)CC1 [Compound 528] | 10 to 50 nM |
| CCOC(=O)N1CCN(c2ccnn3cc(-c4ccc([C@]5(C)CCCN5C(C)C)cc4)cc23)CC1 [Compound 535] | < 10 nM |
| CCOC(=O)N1CCN(c2ccnn3cc(-c4ccc([C@@]5(C)CCCN5C(C)C)cc4)cc23)CC1 [Compound 536] | < 10 nM |
| CCNC(=O)N1CCN(c2ccnn3cc(-c4ncc(N5CCN(C(C)C)CC5)cn4)cc23)CC1 [Compound 553] | 10 to 50 nM |
| CC(C)N1CCC(c2ccc(-c3cc4c(N5CCN(C(=O)C6CC6)CC5)ccnn4c3)c(F)c2)CC1 [Compound 584] | < 10 nM |
| COCNC(=O)N1CCN(c2ccnn3cc(-c4ccc(C5CCN(C(C)C)CC5)cc4)cc23)CC1 [Compound 590] | < 10 nM |
| CCOC(=O)N1CCN(c2ccnn3cc(-c4ccc(C5=CCN(C(C)C)CC5)cc4F)cc23)CC1 [Compound 602] | < 10 nM |
| CC(C)NC(=O)N1CCN(c2ccnn3cc(-c4ccc([C@]5(O)CCN(C(C)C)C5)cn4)cc23)CC1 [Compound 607] | < 10 nM |
| CCNC(=O)N1CCN(c2ccnn3cc(-c4ccc([C@@]5(OC)CCCN(C(C)C)C5)cc4)cc23)CC1 [Compound 640] | < 10 nM |
| CC(C)NC(=O)N1CCN(c2ccnn3cc(-c4ccc(C5CCN(C(C)C)CC5)cc4Cl)cc23)CC1 [Compound 700] | < 10 nM |
| CC(C)N1CCCC(O)(c2ccc(-c3cc4c(N5CCN(C(=O)C6CC(C#N)C6)CC5)ccnn4c3)cc2)C1 (stereo not drawn) [Compound 707] | < 10 nM |
| COC1(c2ccc(-c3cc4c(N5CCN(C(=O)C6CC(C#N)C6)CC5)ccnn4c3)cc2)CCCN(C(C)C)C1 (stereo not drawn) [Compound 730] | < 10 nM |
| COC1(c2ccc(-c3cc4c(N5CCN(C(=O)[C@H]6C[C@H](C#N)C6)CC5)ccnn4c3)nc2)CCN([C@H](C)CO)CC1 [Compound 742] | < 10 nM |
| NCC(O)c1ccc(-c2cc3c(N4CCN(C(=O)C5CC5)CC4)ccnn3c2)cc1 (stereo not drawn) [Compound 751] | < 10 nM |
| COCC(N)c1ccc(-c2cc3c(N4CCN(C(=O)C5CC5)CC4)ccnn3c2)cc1 (stereo not drawn) [Compound 758] | < 10 nM |
| NC(CO)c1ccc(-c2cc3c(N4CCN(C(=O)C5CC5)CC4)ccnn3c2)c(F)c1 (stereo not drawn) [Compound 759] | < 10 nM |
| O=C(C1CC1)N1CCN(c2ccnn3cc(-c4ccc(C5(C(=O)O)CCNCC5)cc4)cc23)CC1 [Compound 781] | 10 to 50 nM |
| CC(C)N1CCC(c2ccc(-c3cc4c(N5CCN(C(=O)N6CC7(COC7)C6)CC5)ccnn4c3)cc2)CC1 [Compound 841] | 10 to 50 nM |
| CCOC1(c2ccc(-c3cc4c(N5CCN(C(=O)NC(C)C)CC5)ccnn4c3)nc2)CCN(C[C@@H](C)F)CC1 [Compound 862] | < 10 nM |
| CCOC1(c2ccc(-c3cc4c(N5CCN(C(=O)O[C@@H](C)CF)CC5)ccnn4c3)nc2)CCN(C(C)C)CC1 [Compound 866] | < 10 nM |
| CCOC1(c2ccc(-c3cc4c(N5CCN(C(=O)OC6COC6)CC5)ccnn4c3)nc2)CCN(C(C)CF)CC1 (stereo not drawn) [Compound 881] | < 10 nM |

Now from value to compound:

| IC50 | Structure (SMILES) |
| --- | --- |
| 10 to 50 nM | O=C(C1CC1)N1CCN(c2ccnn3cc(-c4cnn(C5CCCC5)c4)cc23)CC1 [Compound 103] |
| < 10 nM | O=C(C1CC1)N1CCN(c2ccnn3cc(-c4cnn(C5CCNC5)c4)cc23)CC1 (stereo not drawn) [Compound 104] |
| < 10 nM | O=C(C1CC1)N1CCN(c2ccnn3cc(-c4nc5c(s4)CNCC5)cc23)CC1 [Compound 109] |
| < 10 nM | N[C@H]1CCN(c2ccc(-c3cc4c(N5CCN(C(=O)C6CC6)CC5)ccnn4c3)cc2)C1 [Compound 461] |
| > 50 nM | CC(c1ccc(-c2cc3c(N4CCN(C(=O)C5CC5)CC4)ccnn3c2)cc1)N1CCCC1 (stereo not drawn) [Compound 471] |
| < 10 nM | CC(C)N[C@H]1CCc2cc(-c3cc4c(N5CCN(C(=O)C6CC6)CC5)ccnn4c3)ccc21 [Compound 472] |
| < 10 nM | CC(C)N1CCC(c2ncc(-c3cc4c(N5CCN(C(=O)C6CC6)CC5)ccnn4c3)cn2)CC1 [Compound 525] |
| < 10 nM | CC(C)N1CCN(c2cnc(-c3cc4c(N5CCN(C(=O)C6CC6)CC5)ccnn4c3)cn2)CC1 [Compound 529] |
| < 10 nM | CCNC(=O)N1CCN(c2ccnn3cc(-c4cnc(C5CCN(C(C)C)CC5)nc4)cc23)CC1 [Compound 547] |
| < 10 nM | CCOC(=O)N1CCN(c2ccnn3cc(-c4cnc(C5CCN(C(C)C)CC5)nc4)cc23)CC1 [Compound 552] |
| < 10 nM | CCOC(=O)N1CCN(c2ccnn3cc(-c4ncc(N5CCN(C(C)C)CC5)cn4)cc23)CC1 [Compound 555] |
| < 10 nM | CC(C)N1CCN[C@@](C)(c2ccc(-c3cc4c(N5CCN(C(=O)C6CC6)CC5)ccnn4c3)cc2)C1 [Compound 569] |
| < 10 nM | CC(C)N1CC=C(c2ccc(-c3cc4c(N5CCN(C(=O)C6CC6)CC5)ccnn4c3)c(F)c2)CC1 [Compound 571] |
| < 10 nM | CC(C)N1CCC(c2ccc(-c3cc4c(N5CCN(C(=O)C6COC6)CC5)ccnn4c3)cc2)CC1 [Compound 574] |
| < 10 nM | CCOC(=O)N1CCN(c2ccnn3cc(-c4ccc(C5CCN(C(C)C)CC5)cc4F)cc23)CC1 [Compound 612] |
| < 10 nM | CCNC(=O)N1CCN(c2ccnn3cc(-c4ccc([C@]5(OC)CCCN(C(C)C)C5)cc4)cc23)CC1 [Compound 639] |
| < 10 nM | CC(C)N1CCC(c2ccc(-c3cc4c(N5CCN(C(=O)OCC(C)(C)C)CC5)ccnn4c3)cc2)CC1 [Compound 670] |
| < 10 nM | CCO[C@]1(c2ccc(-c3cc4c(N5CCN(C(=O)NC(C)C)CC5)ccnn4c3)nc2)CCCN(C(C)C)C1 [Compound 717] |
| < 10 nM | O=C(C1CC1)N1CCN(c2ccnn3cc(-c4ccc(CNCCO)cc4)cc23)CC1 [Compound 756] |
| < 10 nM | NC(CO)Cc1ccc(-c2cc3c(N4CCN(C(=O)C5CC5)CC4)ccnn3c2)cc1 (stereo not drawn) [Compound 757] |
| < 10 nM | CCS(=O)(=O)c1ccc(-c2cc3c(N4CCN(C(=O)C5CC5)CC4)ccnn3c2)cc1 [Compound 765] |
| < 10 nM | O=C(C1CC1)N1CCN(c2ccnn3cc(-c4ccc(C5CC6(CNC6)C5)cc4)cc23)CC1 [Compound 767] |
| < 10 nM | NC(c1ccc(-c2cc3c(N4CCN(C(=O)C5CC5)CC4)ccnn3c2)cc1)C1CCCO1 (stereo not drawn) [Compound 769] |
| < 10 nM | CO[C@]1(c2ccc(-c3cc4c(N5CCN(C(=O)NC(C)C)CC5)ccnn4c3)cc2F)CCCNC1 [Compound 806] |
| < 10 nM | CO[C@@]1(c2ccc(-c3cc4c(N5CCN(C(=O)NC(C)C)CC5)ccnn4c3)cc2F)CCCNC1 [Compound 807] |
| 10 to 50 nM | CC(C)N1CCC(c2ccc(-c3cc4c(N5CCN(C(=O)NCC(F)F)CC5)ccnn4c3)cc2)CC1 [Compound 822] |
| 10 to 50 nM | CC(C)N1CCC(c2ccc(-c3cc4c(N5CCN(C(=O)N6CCC67COC7)CC5)ccnn4c3)cc2)CC1 [Compound 842] |
